Consider 1 compound from US6588142B2, “Method of protecting plants from cold injury” (North Carolina State University, priority 2000, dated 2003).

Series [1] deals with Sclerotinia blight. As to the kind of experiment: peanut field study, disease incidence. The format is in vivo. The source says:
(§1) A peanut field was fumigated on April 28 with Metam sodium to control Cylindrocladium. The test plants were planted on May 22 with 16 different varieties of seed (Andru 93; Georgia Green; Tam Run 98; AT120; Southern Runner; Georgia Gold; Georgia Runner; 6K7WIDLEIL; FLA97R; FLAMDR98; FLA84x9B; NC7; VA93B; Perry; VA92R; VA98R), with a two-row planter. Temik and rhizobium were applied in furrow at standard rates. The spray date for the first treatment was July 20; the spray date for the second treatment was August 19. A tractor-mounted sprayer was used for all treatment sprays, with three hollow-cone nozzles per row at 40 psi, and 15 gal water/acre, at a height to cover the entire plant. Only the two treatment rows were sprayed. There were two unsprayed border rows between each treatment, to minimize interplot interference, and to assure even distribution of disease across plots. Herbicides, insecticides, and early leafspot control were applied according to standard practices across the field. Particular treatments were as follows:
(§2) (2) 15.22 fl. oz. Omega 500™ fluazinam 500F/acre (per spray)
(§3) (3) 30.44 fl. oz. Omega 500™ fluazinam 500F/acre (per spray)
(§4) (4) 60.88 fl. oz. Omega 500™ fluazinam 500F/acre (per spray)
(§5) (5) 32.0 fl. oz. Rovral™ brand iprodione+7.68 fl. oz. Nufilm™ adjuvant per acre (per spray)
(§6) Data: Statistics were run using the SAS System using the General Linear Models Procedure.

Series [2] deals with peanut. As to the kind of experiment: peanut field study, frost injury rating. The format is in vivo. Conditions: for Frost Injury, Pr > |T|: frost 66 days after last spray.
Description: as §1, §2, §3, §4, §5
Frost occurred on October 25. Frost ratings were done on November 2d. Rating Index: 1<5% green leaves, 4>50% green leaves; values between 1 and 4 were scaled from 5 to 50%. Stems were not rated, and varied from completely brown, to black, to bright green. When rating percentage of green leaves in a plot, those obviously dead from disease were ignored, and the rating was based on the remaining leaves.
as §6

The subject of series [3] is peanut. The series can be described thus: peanut field study, yield per acre. It counts as in vivo.
Description: as §1, §2, §3, §4, §5
Peanuts were dug on November 10, and harvested on November 15. Moisture samples were taken from untreated plots of each variety. Yields were adjusted to 9% moisture.
as §6

For series [4] the following is noted: pH 7; cited from earlier work.
Setting [5] is: treatment effect on various peanut cultivars.

For the compound `O=[N+]([O-])c1cc(C(F)(F)F)c(Cl)c([N+](=O)[O-])c1Nc1ncc(C(F)(F)F)cc1Cl` [fluazinam], the results for the “Disease Incidence, Pr > |T|” value in series [1] (High Rate vs Control) and in series [1] (High Rate vs Rovral) were 0.0001 and 0.3911, respectively. For the same compound, the disease control entry is “not significantly better” in series [1] (High Rate vs Rovral) and “statistically significantly better disease control” in series [1] (high rate, vs Untreated Control). In addition, the Sclerotinia blight entry in series [1] (setting [5]) is reported as “significantly reduced”. The “Frost Injury, Pr > |T|” value in series [2] (High Rate vs Control) and in series [2] (High Rate vs Rovral) was 0.0001 each time. Also, the frost protection result in series [2] (high rate, compared to both Untreated Control and Rovral) was “statistically significantly better frost protection”. In series [2] (setting [5]), the frost injury result is on record as “significantly reduced”. The “Yield/Acre, Pr > |T|” value in series [3] (High Rate vs Control) and in series [3] (High Rate vs Rovral) was 0.0001 throughout. Further, the yields entry in series [3] (high rate, vs both Untreated Control and Rovral) was “statistically significantly higher”; in series [3] (treatment effect), “significantly higher”. For the same compound, the water solubility in series [4] is listed as 0.071 ppm.
